{"source": "ChEMBL document CHEMBL1671622", "about": "“Novel mutation in 23S rRNA that confers low-level resistance to clarithromycin in Helicobacter pylori” (2008)", "format_in_all_cases": "functional", "key": {"Helicobacter pylori [1]": {"system": "Helicobacter pylori", "assay": "Antimicrobial activity against Helicobacter pylori"}, "Helicobacter pylori [2]": {"system": "Helicobacter pylori", "assay": "Antimicrobial activity against Helicobacter pylori TS1900"}, "Helicobacter pylori [3]": {"system": "Helicobacter pylori", "assay": "Antimicrobial activity against Helicobacter pylori TS1776"}, "Helicobacter pylori [4]": {"system": "Helicobacter pylori", "assay": "Antimicrobial activity against compound-resistant Helicobacter pylori harboring 23S rRNA mutant gene"}, "Helicobacter pylori [5]": {"system": "Helicobacter pylori", "assay": "Antimicrobial activity against clarithromycin-susceptible Helicobacter pylori ATCC 700392 transformant harboring 23S rRNA of Helicobacter pylori TS1900"}, "Helicobacter pylori [6]": {"system": "Helicobacter pylori", "assay": "Antimicrobial activity against Helicobacter pylori S1900"}, "Helicobacter pylori [7]": {"system": "Helicobacter pylori", "assay": "Antimicrobial activity against Helicobacter pylori TF1"}, "Helicobacter pylori [8]": {"system": "Helicobacter pylori", "assay": "Antimicrobial activity against Helicobacter pylori TF2"}, "Helicobacter pylori [9]": {"system": "Helicobacter pylori", "assay": "Antimicrobial activity against Helicobacter pylori TF3"}, "Helicobacter pylori [10]": {"system": "Helicobacter pylori", "assay": "Antimicrobial activity against Helicobacter pylori TF4"}}, "data": [{"smiles": "CC[C@H]1OC(=O)[C@H](C)[C@@H](O[C@H]2C[C@@](C)(OC)[C@@H](O)[C@H](C)O2)[C@H](C)[C@@H](O[C@@H]2O[C@H](C)C[C@H](N(C)C)[C@H]2O)[C@](C)(OC)C[C@@H](C)C(=O)[C@H](C)[C@@H](O)[C@]1(C)O", "note": "[CLARITHROMYCIN]", "values": [{"measurement": "MIC", "setting": "Helicobacter pylori [1]", "result": "≥ 0.125", "unit": "µg/mL"}, {"measurement": "MIC", "setting": "Helicobacter pylori [2]", "result": 1, "unit": "µg/mL"}, {"measurement": "MIC", "setting": "Helicobacter pylori [3]", "result": 0.5, "unit": "µg/mL"}, {"measurement": "MIC", "setting": "Helicobacter pylori [4]", "result": 2, "unit": "µg/mL"}, {"measurement": "MIC", "setting": "Helicobacter pylori [5]", "result": "≤ 0.008", "unit": "µg/mL"}, {"measurement": "MIC", "setting": "Helicobacter pylori [6]", "result": 1, "unit": "µg/mL"}, {"measurement": "MIC", "setting": "Helicobacter pylori [7]", "result": 0.5, "unit": "µg/mL"}, {"measurement": "MIC", "setting": "Helicobacter pylori [8]", "result": 0.25, "unit": "µg/mL"}, {"measurement": "MIC", "setting": "Helicobacter pylori [9]", "result": 1, "unit": "µg/mL"}, {"measurement": "MIC", "setting": "Helicobacter pylori [10]", "result": 1, "unit": "µg/mL"}]}]}
